Laboratory results from ChEMBL document CHEMBL1148279, “Effects of bisphosphonates on the growth of Entamoeba histolytica and Plasmodium species in vitro and in vivo” (J Med Chem, 2004).

Legend:
Plasmodium falciparum = assay: microbe, parasite or virus in culture
Description: In vitro growth inhibition against Plasmodium falciparum

in vitro = conditions: human, KB cells (nasopharyngeal carcinoma)
Description: Toxicity evaluated against human nasopharyngeal carcinoma KB cell line

Entamoeba histolytica = assay: In vitro growth inhibition against Entamoeba histolytica; assay type: functional, organism-based
[1] = Therapeutic index was expressed as ratio of LD50 for KB cell line to IC50 against Entamoeba histolytica; assay type: cell-based; conditions: human, KB cells; read-out: TI

Structure (SMILES) | IC50 (Plasmodium falciparum) [µM] | CC50 (in vitro) [µM] | IC50 (Entamoeba histolytica) [µM] | selectivity ratio [1]
O=P(O)(O)C(N1CCC(O)CC1)P(=O)(O)O | > 200 | > 1010 | > 200 | –
O=P(O)(O)CC(c1ccccn1)P(=O)(O)O (stereo not given) | > 200 | < 1.1 | > 200 | –
CCCCNC(P(=O)(O)O)P(=O)(O)O [(BUTYLAMINO)METHYLENEDIPHOSPHONIC ACID] | > 200 | 212 | > 200 | –
CCCCCCCCCCCCCCCCCC(O)(P(=O)(O)O)P(=O)(O)O | > 200 | < 0.65 | > 200 | –
O=P(O)(O)C(NC1CC1)P(=O)(O)O [(CYCLOPROPYLAMINO)METHYLENEDIPHOSPHONIC ACID] | > 200 | 246 | 113 | 2.18
O=P(O)(O)C(O)(C1CC1)P(=O)(O)O [CYCLOPROPYL(HYDROXY)METHYLENEDIPHOSPHONIC ACID] | > 200 | > 1240 | > 200 | –
O=P(O)(O)C(Nc1ccc(Cl)nc1)P(=O)(O)O | > 200 | > 992 | 21.7 | > 45.7
CCOP(=O)(OCC)C(Nc1ncccc1C)P(=O)(OCC)OCC | – | > 790 | > 200 | –
NCCCCCC(O)(P(=O)(O)O)P(=O)(O)O [NERIDRONIC ACID] | – | – | > 200 | –
O=P(O)(O)C(O)(CCc1cccnc1)P(=O)(O)O | – | > 804 | > 200 | –
O=C(O)c1cn(C2CC2)c2cc(N3CCN(CC(P(=O)(O)O)P(=O)(O)O)CC3)c(F)cc2c1=O | > 200 | > 568 | > 200 | –
O=P(O)(O)C(O)(Cc1ccncc1)P(=O)(O)O | – | 171 | > 200 | –
O=P(O)(O)C(N1CCCCCC1)P(=O)(O)O [N-(HEXAMETHYLENEIMINO)METHYLENEBISPHOSPHONIC ACID] | > 200 | > 1100 | > 200 | –
O=P(O)(O)C(N1CCSCC1)P(=O)(O)O [THIOMORPHOLINOMETHYLENEDIPHOSPHONIC ACID] | > 200 | > 1120 | > 200 | –
O=P(O)(O)C(NC1CCCCCC1)P(=O)(O)O [INCADRONIC ACID] | > 200 | 166 | > 200 | –
Cc1csc(NC(P(=O)(O)O)P(=O)(O)O)n1 | > 200 | 150 | > 200 | –
O=P(O)(O)C(O)(Cn1ccnc1)P(=O)(O)O [ZOLEDRONIC ACID] | 167 | 63.7 | 12 | –
CCCCN(CC)C(P(=O)(O)O)P(=O)(O)O [(BUTYL(ETHYL)AMINO)METHYLENEDIPHOSPHONIC ACID] | > 200 | > 1060 | 47.3 | > 22.3
Cc1cccnc1NC(P(=O)(O)O)P(=O)(O)O | – | – | > 200 | –
O=P(O)(O)C(O)(C1CCC1)P(=O)(O)O [CYCLOBUTYL(HYDROXY)METHYLENEDIPHOSPHONIC ACID] | > 200 | > 1220 | > 200 | –

Structure (SMILES) | IC50 (Plasmodium falciparum) [µM] | CC50 (in vitro) [µM] | IC50 (Entamoeba histolytica) [µM] | selectivity ratio [1]
O=P(O)(O)C(Nc1cc(Cl)cc(Cl)c1)P(=O)(O)O [(3,5-DICHLOROPHENYLAMINO)METHYLENEDIPHOSPHONIC ACID] | > 200 | 314 | > 200 | –
O=P(O)(O)C(Nc1nccc2ccccc12)P(=O)(O)O | 50.4 | 673 | > 200 | –
CCOP(=O)(OCC)C(Nc1cc(C)ccn1)P(=O)(OCC)OCC | > 200 | 127 | > 200 | –
CC(N)CC(O)(P(=O)(O)O)P(=O)(O)O (stereo not given) | – | > 977 | > 200 | –
O=P(O)(O)C(Nc1ncccc1OCc1ccccc1)P(=O)(O)O | > 200 | > 764 | > 200 | –
CCc1cccc(NC(P(=O)(O)O)P(=O)(O)O)c1 | > 200 | > 1020 | > 200 | –
CCCC(O)(P(=O)(O)O)P(=O)(O)O | – | > 967 | > 200 | –
CN(C)CCC(O)(P(=O)(O)O)P(=O)(O)O [OLPADRONIC ACID] | – | > 1050 | > 200 | –
Nc1ccc(CC(O)(P(=O)(O)O)P(=O)(O)O)cc1 | – | – | > 200 | –
CCCN(CCC)C(P(=O)(O)O)P(=O)(O)O [(DIPROPYLAMINO)METHYLENEDIPHOSPHONIC ACID] | > 200 | 322 | > 200 | –
O=P(O)(O)C(NCCc1ccc(O)cc1)P(=O)(O)O [(4-HYDROXYPHENETHYLAMINO)METHYLENEDIPHOSPHONIC ACID] | > 200 | 99.8 | > 200 | –
O=P(O)(O)C(Nc1ccc(Cl)cn1)P(=O)(O)O | 10.6 | > 991 | 87 | –
O=P(O)(O)C(NC1CCCCC1)P(=O)(O)O [(CYCLOHEXYLAMINO)METHYLENEDIPHOSPHONIC ACID] | > 200 | – | – | –
CCn1c2ccccc2c2ccc(NC(P(=O)(O)O)P(=O)(O)O)cc21 | 104 | 710 | > 200 | –
O=P(O)(O)C(NC1CCC1)P(=O)(O)O [(CYCLOBUTYLAMINO)METHYLENEDIPHOSPHONIC ACID] | > 200 | 260 | > 200 | –
NCCCC(O)(P(=O)(O)O)P(=O)(O)O [ALENDRONIC ACID] | – | – | > 200 | –
O=P(O)(O)C(O)(Cc1ccccn1)P(=O)(O)O | – | – | > 200 | –
CCCCCCCC(O)(P(=O)(O)O)P(=O)(O)O | 26.7 | 308 | 22.3 | –
O=P(O)(O)C(Nc1ccccn1)P(=O)(O)O | > 200 | 465 | > 200 | –
NCCCCC(O)(P(=O)(O)O)P(=O)(O)O | – | 91 | > 200 | –

Structure (SMILES) | IC50 (Plasmodium falciparum) [µM] | CC50 (in vitro) [µM] | IC50 (Entamoeba histolytica) [µM] | selectivity ratio [1]
O=P(O)(O)C(Nc1c(F)c(F)c(F)c(F)c1F)P(=O)(O)O | > 200 | > 779 | > 200 | –
O=P(O)(O)C(O)(C1CCCCC1)P(=O)(O)O [CYCLOHEXYL(HYDROXY)METHYLENEDIPHOSPHONIC ACID] | > 200 | 1090 | > 200 | –
O=P(O)(O)C(Nc1cccnc1Cl)P(=O)(O)O | > 200 | > 963 | > 200 | –
O=P(O)(O)C(O)(Cc1c[nH]cn1)P(=O)(O)O | – | 41 | > 200 | –
O=P(O)(O)CC(c1ccncc1)P(=O)(O)O (stereo not given) | > 200 | > 1120 | > 200 | –
CCCCCCCc1ccc(NC(P(=O)(O)O)P(=O)(O)O)cc1 | – | 211 | 36.2 | –
O=P(O)(O)C(N1CCCCC1)P(=O)(O)O | > 200 | > 1090 | > 200 | –
O=P(O)(O)C(Nc1ccc2c(c1)CCC2)P(=O)(O)O | > 200 | > 976 | > 200 | –
Cc1ncc([N+](=O)[O-])n1CCO [METRONIDAZOLE] | – | – | 3.2 | –
O=P(O)(O)C(Nc1nc2ccccc2s1)P(=O)(O)O | > 200 | < 0.93 | – | –
Cc1cccc(NC(P(=O)(O)O)P(=O)(O)O)n1 | > 200 | 18.6 | 64 | –
CCCNC(P(=O)(O)O)P(=O)(O)O [(PROPYLAMINO)METHYLENEDIPHOSPHONIC ACID] | > 200 | 499 | > 200 | –
O=P(O)(O)C(N(C1CCCCC1)C1CCCCC1)P(=O)(O)O [(DICYCLOHEXYLAMINO)METHYLENEDIPHOSPHONIC ACID] | > 200 | > 844 | > 200 | –
O=P(O)(O)C(N1CCc2ccccc2C1)P(=O)(O)O | – | > 922 | 71 | > 13
O=P(O)(O)C(CNc1ccncc1)P(=O)(O)O | > 200 | 386 | > 200 | –
O=P(O)(O)CC(c1cccnc1)P(=O)(O)O (stereo not given) | > 200 | 1020 | > 200 | –
CC(C)CNC(P(=O)(O)O)P(=O)(O)O [(ISOBUTYLAMINO)METHYLENEDIPHOSPHONIC ACID] | > 200 | 50.5 | > 200 | –
Cc1ccnc(NC(P(=O)(O)O)P(=O)(O)O)c1 | > 200 | – | > 200 | –
O=P(O)(O)C(CNc1ccccn1)P(=O)(O)O | 17 | 144 | > 200 | –
